Test results reported in article PMC8352664 (The Journal of Biological Chemistry, 2021).

Key:
Assay type in all cases: binding, human
[1] = target: TRAV12-1 TCR NR1C; conditions: pH 7.5
[2] = target: TRAV12-2 TCR NR2F; conditions: pH 7.5
[3] = target: TRAV12-1 TCR NR1A; conditions: pH 7.5
[4] = target: TRAV12-1 TCR NR1D; conditions: pH 7.5
[5] = tested on: TRAV12^+ TCRs

| Sequence | KD, NR1C [1] | KD, NR2F [2] | KD, NR1A [3] | KD, NR1D [4] | TCR binding to HLA-A2 presenting the changed epitope [5] |
| --- | --- | --- | --- | --- | --- |
| TLDPRSFLL [PAR1] | N.B. | N.B. |  |  |  |
| YLQPSTFLL [S^269–277R273S] | N.B. | N.B. | N.B. | N.B. | completely abrogated TCR binding |
